Experimental data from patent US20240368139A1, “NOVEL MODULATORS OF EHMT1 AND EHMT2 AND THERAPEUTIC USE THEREOF” (Tango Therapeutics, Inc., priority 2021, published 2024).

What was measured:
human EHMT1 982-1266 = biological target: T1, human EHMT1 982-1266 (Homo sapiens, UniProt Q9H9B1); test: EHMT1 enzyme assay on histone peptide substrate (3H-SAM SPA); conditions: EHMT1 IC50, recombinant human EHMT1 982-1266, histone peptide substrate
T1 sequence (Q9H9B1 982-1266): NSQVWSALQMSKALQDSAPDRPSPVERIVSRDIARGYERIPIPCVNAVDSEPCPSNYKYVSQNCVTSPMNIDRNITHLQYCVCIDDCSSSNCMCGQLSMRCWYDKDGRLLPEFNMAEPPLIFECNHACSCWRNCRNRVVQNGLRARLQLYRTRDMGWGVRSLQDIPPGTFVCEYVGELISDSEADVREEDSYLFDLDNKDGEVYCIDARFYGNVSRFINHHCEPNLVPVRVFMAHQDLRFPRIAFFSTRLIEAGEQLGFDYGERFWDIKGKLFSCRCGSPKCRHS

human EHMT2 913-1193 = biological target: T2, human EHMT2 913-1193 (Homo sapiens, UniProt Q96KQ7); test: EHMT2 enzyme assay on histone peptide substrate (3H-SAM SPA); conditions: EHMT2 IC50, recombinant human EHMT2 913-1193, histone peptide substrate
T2 sequence (Q96KQ7 913-1193): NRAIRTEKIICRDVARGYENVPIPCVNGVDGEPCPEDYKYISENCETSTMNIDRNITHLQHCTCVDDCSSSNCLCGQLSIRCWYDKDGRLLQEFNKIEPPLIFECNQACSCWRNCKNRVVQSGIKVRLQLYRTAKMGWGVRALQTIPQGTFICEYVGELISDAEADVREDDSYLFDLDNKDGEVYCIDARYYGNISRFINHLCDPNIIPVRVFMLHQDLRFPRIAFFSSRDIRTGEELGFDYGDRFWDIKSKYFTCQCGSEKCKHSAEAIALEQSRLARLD

H3K9me2 in HCT116 cells = test: HCT116 H3K9me2 in-cell western assay; type: cell-based; conditions: Homo sapiens, HCT-116, 72 h, HCT116 cells, 72 hours incubation; read-out: H3K9me2 ICW IC50
In short: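 HCT116 cells (2,000/well) were treated for 72 h at 37° C, 5% CO2, with ten two-fold dilutions from 10 μM in duplicate. After PFA fixation, cells were stained overnight at 4° C with anti-H3K9me2, then with an 800 CW secondary plus DRAQ5.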

| Structure (SMILES) | IC50 (human EHMT1 982-1266) | IC50 (human EHMT2 913-1193) | IC50 (H3K9me2 in HCT116 cells) |
| --- | --- | --- | --- |
| CNc1cc(C)nc(Nc2cc3c(c(C4=CCN(C)CCC4)c2)OC(F)(F)O3)n1 [Compound 156, N2-[2,2-difluoro-7-(1-methyl-2,3,4,7-tetrahydroazepin-5-yl)-1,3-benzodioxol-5-yl]-N4,6-dimethyl-pyrimidine-2,4-diamine] | < 100 nM | 100 to 500 nM | 100 to 500 nM |
| CNc1cc(C)nc(Nc2cc3c(c(C4=CCN(CCOC)CCC4)c2)OC(F)(F)O3)n1 [Compound 158, N2-[2,2-difluoro-7-[1-(2-methoxyethyl)-2,3,4,7-tetrahydroazepin-5-yl]-1,3-benzodioxol-5-yl]-N4,6-dimethyl-pyrimidine-2,4-diamine] | > 2000 nM | > 2000 nM | > 2000 nM |
| CNc1cc(C)nc(Nc2cc3c(c(C4=CCN(C)CCC4)c2Cl)OCCO3)n1 [Compound 165, N2-[6-chloro-5-(1-methyl-2,3,4,7-tetrahydroazepin-5-yl)-2,3-dihydro-1,4-benzodioxin-7-yl]-N4,6-dimethyl-pyrimidine-2,4-diamine] | < 100 nM | < 100 nM | < 100 nM |
| CNc1cc(C)nc(Nc2cc3c(c(C4=CCN(C)CCC4)c2F)OCC32CC2)n1 [Compound 171] | < 100 nM | 100 to 500 nM | < 100 nM |
| CNc1cc(C)nc(Nc2cc3c(c(C4=CCN(C)CCC4)c2F)OCCC3(F)F)n1 [Compound 173] | < 100 nM | 100 to 500 nM | < 100 nM |
| CNc1cc(C)nc(Nc2cc3c(c(C4=CCNCCC4)c2F)OCCC3(F)F)n1 [Compound 174] | < 100 nM | < 100 nM | < 100 nM |
| CNc1cc(C)nc(Nc2cc3c(c(C4=CCNCCC4)c2F)OCC3(C)C)n1 [Compound 178] | < 100 nM | 100 to 500 nM | < 100 nM |
| CNc1cc(C)nc(Nc2cc3c(c(C4=CCN(C)CCC4)c2F)OCC3C)n1 (stereo not drawn) [Compound 181] | < 100 nM | 100 to 500 nM | 100 to 500 nM |
| CNc1cc(C)nc(Nc2cc3c(c(C4=C[C@@H](C)NCCC4)c2F)OCC3)n1 [Compound 182] | < 100 nM | 100 to 500 nM | < 100 nM |
| CNc1cc(C)nc(Nc2cc3c(c(C4=C[C@H](C)NCCC4)c2F)OCC3)n1 [Compound 185] | < 100 nM | 100 to 500 nM | < 100 nM |
| CNc1cc(C)nc(Nc2c(F)c3c(c(C4=CCN(C)CCC4)c2F)OCC3)n1 [Compound 186] | 100 to 500 nM | 500 to 2000 nM | 100 to 500 nM |
| CNc1cc(C)nc(Nc2cc3c(c(C4=CCNCCC4)c2OC)OCC3)n1 [Compound 192] | 100 to 500 nM | 500 to 2000 nM | 100 to 500 nM |
| CNc1nc(Nc2cc3c(c(C4=CCNCCC4)c2F)OCC3)nc(C)c1OC [Compound 194] | < 100 nM | 100 to 500 nM | < 100 nM |
| CNc1cc(C)nc(Nc2cc3c(c(C4=CCN(C(C)C)CCC4)c2F)OCC3)n1 [Compound 195] | < 100 nM | 100 to 500 nM | < 100 nM |
| CNc1nc(Nc2cc3c(c(C4=CCN(C)CCC4)c2F)OCC3)nc(C)c1OC [Compound 196] | 100 to 500 nM | 500 to 2000 nM | 100 to 500 nM |
| CNc1nc(Nc2cc3c(c(C4=CCNCCC4)c2F)OCCO3)nc(C)c1F [Compound 197] | 100 to 500 nM | 500 to 2000 nM | 100 to 500 nM |
| CNc1cc(C)nc(Nc2cc3c(c(C4=CCNCCC4)c2O)OCC3)n1 [Compound 198] | < 100 nM | 100 to 500 nM | 100 to 500 nM |
| CNc1cc(C)nc(Nc2cc3c(c(C4=CCN(CC(F)F)CCC4)c2F)OCC3)n1 [Compound 199] | 100 to 500 nM | 500 to 2000 nM | 100 to 500 nM |
| CNc1cc(C)nc(Nc2cc3c(c(C4=CC(C)N(C)CCC4)c2F)OCC3)n1 (stereo not drawn) [Compound 200] | 100 to 500 nM | 500 to 2000 nM | 100 to 500 nM |
| CNc1cc(C)nc(Nc2cc3c(c(C4=CCN(C)CCC4)c2F)OCO3)n1 [Compound 203] | < 100 nM | < 100 nM | < 100 nM |
| CNc1cc(C)nc(Nc2cc3c(c(C4=CCN(C)C(C)CC4)c2F)OCC3)n1 (stereo not drawn) [Compound 204] | < 100 nM | < 100 nM | < 100 nM |
| CNc1nc(Nc2cc3c(c(C4=CCN(C)CCC4)c2F)OCO3)nc(C)c1F [Compound 205] | 100 to 500 nM | 500 to 2000 nM | 100 to 500 nM |
| CNc1cc(C)nc(Nc2cc3c(c(C4=CC(C)NCCC4)c2F)OCC3)n1 (stereo not drawn) [Compound 206] | < 100 nM | 100 to 500 nM | < 100 nM |

| Structure (SMILES) | IC50 (human EHMT1 982-1266) | IC50 (human EHMT2 913-1193) | IC50 (H3K9me2 in HCT116 cells) |
| --- | --- | --- | --- |
| CNc1cc(C)nc(Nc2cc3c(c(C4=CCNCCC4)c2F)OCO3)n1 [Compound 207] | < 100 nM | < 100 nM | < 100 nM |
| CNc1cc(Nc2cc3c(c(C4=CCN(C)CCC4)c2F)OCO3)nc(C)c1F [Compound 208] | 100 to 500 nM | 100 to 500 nM | 100 to 500 nM |
| CNc1nc(Nc2cc3c(c(C4=CCNCCC4)c2F)OCO3)nc(C)c1F [Compound 209] | 100 to 500 nM | 100 to 500 nM | < 100 nM |
| CCc1c(C)nc(Nc2cc3c(c(C4=CCN(C)CCC4)c2F)OCC3)nc1NC [Compound 210] | < 100 nM | 100 to 500 nM | < 100 nM |
| CNc1cc(Nc2cc3c(c(C4=CCNCCC4)c2F)OCO3)nc(C)c1F [Compound 211] | < 100 nM | < 100 nM | < 100 nM |
| CCc1c(C)nc(Nc2cc3c(c(C4=CCNCCC4)c2F)OCC3)nc1NC [Compound 212] | < 100 nM | < 100 nM | < 100 nM |
| CNc1nc(Nc2cc3c(c(C4=CCN(C)CCC4)c2F)OCC3)nc(C)c1C [Compound 214] | < 100 nM | < 100 nM | < 100 nM |
| CNc1nc(Nc2cc3c(c(C4=CCN(C)CCC4)c2F)OCC3)nc(C)c1Cl [Compound 215] | 100 to 500 nM | 500 to 2000 nM | 100 to 500 nM |
| [2H]C([2H])([2H])CNc1cc(C)nc(Nc2cc3c(c(C4=CCN(C)CCC4)c2F)OCC3)n1 [Compound 217] | < 100 nM | < 100 nM | < 100 nM |
| [2H]Cc1nc(Nc2cc3c(c(C4=CCN(C)CCC4)c2)OCC3)nc(NC)c1F [Compound 218] | 100 to 500 nM | 500 to 2000 nM | 100 to 500 nM |
| [2H]Cc1nc(Nc2cc3c(c(C4=CCN(C)CCC4)c2F)OCC3)nc(NC([2H])([2H])[2H])c1F [Compound 219] | 100 to 500 nM | 100 to 500 nM | < 100 nM |
| [2H]Cc1nc(Nc2cc3c(c(C4=CCN(C)CCC4)c2)OCC3)nc(NC([2H])([2H])[2H])c1F [Compound 220] | 100 to 500 nM | 500 to 2000 nM | 100 to 500 nM |
| [2H]Cc1nc(Nc2cc3c(c(C4=CCN(C)CCC4)c2F)OCC3)nc(NC)c1F [Compound 221] | 100 to 500 nM | 500 to 2000 nM | < 100 nM |
| [2H]Cc1nc(Nc2cc3c(c(C4=CCN(C)CCC4)c2F)OCC3)nc(NCC([2H])([2H])[2H])c1F [Compound 222] | 100 to 500 nM | 500 to 2000 nM | 100 to 500 nM |
| CNc1nc(Nc2cc3c(c(C4=CCNCCC4)c2F)OCC3)nc(C)c1C [Compound 223, N2-[6-fluoro-7-(2,3,4,7-tetrahydro-1H-azepin-5-yl)-2,3-dihydrobenzofuran-5-yl]-N4,5,6-trimethyl-pyrimidine-2,4-diamine] | < 100 nM | < 100 nM | < 100 nM |
| CNc1nc(Nc2cc3c(c(C4=CCNCCC4)c2F)OCC3)nc(C)c1Cl [Compound 224] | < 100 nM | < 100 nM | < 100 nM |
| [2H]Cc1nc(Nc2cc3c(c(C4=CCNCCC4)c2F)OCC3)nc(NC([2H])([2H])[2H])c1F [Compound 225] | < 100 nM | < 100 nM | < 100 nM |
| [2H]Cc1nc(Nc2cc3c(c(C4=CCNCCC4)c2F)OCC3)nc(NCC([2H])([2H])[2H])c1F [Compound 226] | < 100 nM | 100 to 500 nM | 100 to 500 nM |
| [2H]C([2H])([2H])N1CC=C(c2c(F)c(Nc3nc(C)cc(NC)n3)cc3c2OCC3)CCC1 [Compound 227] | < 100 nM | < 100 nM | < 100 nM |
| [2H]C([2H])([2H])Nc1nc(Nc2cc3c(c(C4=CCN(C)CCC4)c2F)OCC3)nc(C)c1F [Compound 228] | < 100 nM | 100 to 500 nM | 100 to 500 nM |
| [2H]Cc1nc(Nc2cc3c(c(C4=CCNCCC4)c2)OCC3)nc(NC)c1F [Compound 229] | < 100 nM | 100 to 500 nM | 100 to 500 nM |
| [2H]Cc1cc(NC([2H])([2H])[2H])nc(Nc2cc3c(c(C4=CCN(C)CCC4)c2)OCCO3)n1 [Compound 230] | < 100 nM | 100 to 500 nM | 100 to 500 nM |
